The numbers were not newly measured in patent publication US20090169606A1, “Low Flexural Strength Transdermal Tobacco Alkaloid Patch” (Fertin Pharma, priority 2005, published 2009), which cites them from elsewhere.

For the data set the following is noted: pure nicotine placed on the skin of an ordinary human being.

Consider `CN1CCCC1c1cccnc1` (stereo not shown) [nicotine], for which the lethal dose is recorded as 50 mg.
